Data taken from paper PMC11078990, “Identification and characterization of small molecule inhibitors of the LINE-1 retrotransposon endonuclease” (Nature Communications, 2024).
Where “and” joins values, the source holds several entries; their conditions need not be identical. Identical values can stand only once. Like-named read-outs stand apart in the source and are kept apart here.

How the values were obtained:
HeLa Tet-On cells = conditions: human
[1] = test system: substrate oligonucleotide used in the EN activity assay; type: binding; set-up: key to Binding Detected? (Y/N): Binding Detected? (Y/N); Binding Detected? (Y/N)
APE1 = molecular target: T1, APE1 (Homo sapiens, UniProt P27695); assay: APE1 fluorescent oligonucleotide activity assay (abasic site substrate); type: biochemical; conditions: for activity at 25 µM: read-out: APE1 activity (%)
T1 construct: purchased New England Biolabs (NEB) M0282S

L1 retrotransposition = assay: HeLa dual-luciferase L1 retrotransposition assay; type: cell-based, human
[2] = molecular target: L1 EN (LINE-1 retrotransposon endonuclease domain) (Homo sapiens, UniProt O00370, N5T); assay: Fluorescent oligonucleotide EN nicking activity assay; type: biochemical
Sequence of L1 EN (LINE-1 retrotransposon endonuclease domain) (O00370 1-239 N5T): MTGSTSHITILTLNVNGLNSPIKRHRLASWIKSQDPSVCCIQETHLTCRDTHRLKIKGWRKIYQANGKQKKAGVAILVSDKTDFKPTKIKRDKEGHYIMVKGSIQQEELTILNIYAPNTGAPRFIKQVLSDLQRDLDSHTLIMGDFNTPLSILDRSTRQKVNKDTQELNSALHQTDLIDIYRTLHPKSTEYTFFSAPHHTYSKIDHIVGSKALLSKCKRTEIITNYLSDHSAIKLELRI

[3] = read-out: EN activity, percent of no inhibitor control
[4] = compound at 25 μM, average of 3 replicates
[5] = inhibitors at 25 μM, relative to 0 μM inhibitor control, mean ± s.d., 3 independent experiments
[6] = [Inhibitor] 1 μM, technical replicates 1-3, Fig. 2b source data, 1 µM
[7] = [Inhibitor] 1 μM, technical replicates 1-3, Fig. 2b source data, read-out: EN activity, percent of no inhibitor control
[8] = [Inhibitor] 5 μM, technical replicates 1-3, Fig. 2b source data, 5 µM
[9] = [Inhibitor] 5 μM, technical replicates 1-3, Fig. 2b source data, read-out: EN activity, percent of no inhibitor control
[10] = [Inhibitor] 50 μM, technical replicates 1-3, Fig. 2b source data, 50 µM
[11] = [Inhibitor] 50 μM, technical replicates 1-3, Fig. 2b source data, read-out: EN activity, percent of no inhibitor control
[12] = [Inhibitor] 100 μM, technical replicates 1-3, Fig. 2b source data, 100 µM
[13] = [Inhibitor] 100 μM, technical replicates 1-3, Fig. 2b source data, read-out: EN activity, percent of no inhibitor control
[14] = [Inhibitor] 250 μM, technical replicates 1-3, Fig. 2b source data, 250 µM
[15] = [Inhibitor] 500 μM, technical replicates 1-3, Fig. 2b source data, 500 µM
[16] = [Inhibitor] 1000 μM, technical replicates 1-3, Fig. 2b source data, 1000 µM
[17] = [Inhibitor] 1000 μM, technical replicates 1-3, Fig. 2b source data, read-out: EN activity, percent of no inhibitor control

Cc1cc(=O)oc2c3c(ccc12)O/C(=N/Nc1ccc([N+](=O)[O-])cc1[N+](=O)[O-])C3=O [AD5]
PrestoBlue (viability), average (HeLa Tet-On cells): 15.98 | Binding Detected? (Y/N) [1]: N | APE1 percent activity, Replicate 1 (APE1): 111.351% | APE1 percent activity, Replicate 2 (APE1): 107.526% | APE1 percent activity, Replicate 3 (APE1): 109.094% | APE1 percent activity, average (APE1): 109.324% | activity at 25 µM (APE1): 109 ± 1.9% | Effect on L1 retrotransposition (L1 retrotransposition): did not significantly impact retrotransposition | Luciferase (retrotransposition), average (L1 retrotransposition): 7.139 | Luciferase (retrotransposition), replicates (L1 retrotransposition): 5.447 and 9.3633 and 6.616 and 7.129 | EN activity, percent of no inhibitor control ([2]; 0.5 µM): 83.4432% and 74.5276% | EN activity, percent of no inhibitor control ([2]; 2 µM): 70.978% and 73.9003% | EN activity, percent of no inhibitor control ([2]; 5 µM): 74.0185% and 75.6649% | EN activity, percent of no inhibitor control ([2]; 10 µM): 77.2953% and 59.874% and 46.95% | EN activity, percent of no inhibitor control ([2]; 25 µM): 51.0006% and 46.7642% | EN activity, percent of no inhibitor control ([2]; 100 µM): 9.806% and 12.2088% | EN activity, percent of no inhibitor control ([2]; 250 µM): 10.849% and 15.1279% | EN activity, percent of no inhibitor control ([2]; 500 µM): 8.917% and 12.6828% | remaining activity at 0.5 µM [2, 3]: 82.5% | remaining activity at 2 µM [2, 3]: 78.9% | remaining activity at 5 µM [2, 3]: 74.7% | remaining activity at 25 µM [2, 3]: 46.1% | remaining activity at 100 µM [2, 3]: 7.29% | remaining activity at 250 µM [2, 3]: 12% | remaining activity at 500 µM [2, 3]: 9.9%

O=C(Nc1ccc(S(=O)(=O)NCc2ccco2)cc1)c1cc(NS(=O)(=O)c2cccs2)cc(NS(=O)(=O)c2cccs2)c1 [AD18]
Binding Detected? (Y/N) [1]: N | APE1 percent activity, Replicate 1 (APE1; compound at 25 μM, Replicate 1): 95.6087% | APE1 percent activity, Replicate 2 (APE1; compound at 25 μM, Replicate 2): 100.395% | APE1 percent activity, Replicate 3 (APE1; compound at 25 μM, Replicate 3): 113.415% | APE1 percent activity, average (APE1; [4]): 103.14% | activity at 25 µM (APE1; [5]): 103 ± 9.2% | Effect on L1 retrotransposition (L1 retrotransposition; HeLa cells): did not significantly impact retrotransposition | EN activity, percent of no inhibitor control [2, 6]: 113.77% and 114.319% | remaining activity at 1 µM [2, 7]: 128% | EN activity, percent of no inhibitor control [2, 8]: 110.276% and 111.074% | remaining activity at 5 µM [2, 9]: 98.7% | EN activity, percent of no inhibitor control ([2]; [Inhibitor] 10 μM, technical replicates 1-3, Fig. 2b source data, 10 µM): 114.402% and 118.423% | remaining activity at 10 µM ([2]; [Inhibitor] 10 μM, technical replicates 1-3, Fig. 2b source data, read-out: EN activity, percent of no inhibitor control): 107% | EN activity, percent of no inhibitor control ([2]; [Inhibitor] 25 μM, technical replicates 1-3, Fig. 2b source data, 25 µM): 99.7158% and 102.855% | remaining activity at 25 µM ([2]; [Inhibitor] 25 μM, technical replicates 1-3, Fig. 2b source data, read-out: EN activity, percent of no inhibitor control): 118% | EN activity, percent of no inhibitor control [2, 10]: 87.6677% and 95.4608% | remaining activity at 50 µM [2, 11]: 82% | EN activity, percent of no inhibitor control [2, 12]: 45.2675% and 31.8714% | remaining activity at 100 µM [2, 13]: 46.3% | EN activity, percent of no inhibitor control [2, 14]: -2.192% and 4.074% and 1.188% | EN activity, percent of no inhibitor control [2, 15]: 1.364% and -0.7511% and -2.792% | EN activity, percent of no inhibitor control [2, 16]: 4.465% and 5.692% | remaining activity at 1000 µM [2, 17]: 3.32%

Cc1ccc(NC(=O)CSc2nc(-c3ccccc3F)nc3c2Cc2c(CO)cnc(C)c2O3)cc1 [AD28]
Binding Detected? (Y/N) [1]: N | APE1 percent activity, Replicate 1 (APE1; compound at 25 μM, Replicate 1): 117.021% | APE1 percent activity, Replicate 2 (APE1; compound at 25 μM, Replicate 2): 119.222% | APE1 percent activity, Replicate 3 (APE1; compound at 25 μM, Replicate 3): 118.718% | APE1 percent activity, average (APE1; [4]): 118.32% | activity at 25 µM (APE1; [5]): 118 ± 1.2% | EN activity, percent of no inhibitor control [2, 6]: 96.841% and 106.468% | remaining activity at 1 µM [2, 7]: 95.4% | EN activity, percent of no inhibitor control [2, 8]: 89.9598% and 81.1542% | remaining activity at 5 µM [2, 9]: 92% | EN activity, percent of no inhibitor control ([2]; [Inhibitor] 20 μM, technical replicates 1-3, Fig. 2b source data, 20 µM): 104.354% and 99.6299% | remaining activity at 20 µM ([2]; [Inhibitor] 20 μM, technical replicates 1-3, Fig. 2b source data, read-out: EN activity, percent of no inhibitor control): 87.7% | EN activity, percent of no inhibitor control [2, 10]: 92.3894% and 103.331% | remaining activity at 50 µM [2, 11]: 89.2% | EN activity, percent of no inhibitor control [2, 12]: 86.184% and 81.609% | remaining activity at 100 µM [2, 13]: 79.1% | EN activity, percent of no inhibitor control [2, 14]: 59.9195% and 84.2317% and 41.5158% | EN activity, percent of no inhibitor control [2, 15]: 4.092% and 40.0005% and 32.2238% | EN activity, percent of no inhibitor control ([2]; [Inhibitor] 750 μM, technical replicates 1-3, Fig. 2b source data, 750 µM): 45.0869% and 49.2787% | remaining activity at 750 µM ([2]; [Inhibitor] 750 μM, technical replicates 1-3, Fig. 2b source data, read-out: EN activity, percent of no inhibitor control): 52.5% | EN activity, percent of no inhibitor control [2, 16]: 23.297% and 19.7447% | remaining activity at 1000 µM [2, 17]: 37.6%
